Laboratory results taken from US7118895B2, “Process for producing aglycon by using diglycosidase and flavor-improved food containing the aglycon and converting agent to be used in the process” (Amano Enzyme Inc., priority 2000, dated 2006).

Test system: Crude diglycosidase
Assay: Examination of pH in the conversion into isoflavone aglycons by diglycosidase using soybean materials
Format: biochemical, Penicillium multicolor IAM7153
Settings: for Decomposition efficiency of glycitin family in roasted soy flour / Decomposition efficiency of glycitin family in soymilk: 55° C.
Procedure, shortened: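 HPLC readout: isoflavone glycosides vs aglycons. Substrates: 50 mg soy material (roasted flour, soymilk, defatted bean, concentrated protein), pH 2–11 (HCl/NaOH). Crude diglycosidase solution 1.88 AU/mL, matched pH; 55° C; quenched with ethanol at 0/1/3/6 h; centrifuged 15,000 rpm, 4° C, 10 min.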

[1] = pH6.6, heat treatment of enzyme: no, reaction time 0 h
[2] = pH6.6, heat treatment of enzyme: no, reaction time 1 h
[3] = pH6.6, heat treatment of enzyme: no, reaction time 3 h
[4] = pH6.6, heat treatment of enzyme: no, reaction time 6 h
[5] = pH6.6, heat treatment of enzyme: yes, reaction time 6 h

COc1cc2c(=O)c(-c3ccc(O)cc3)coc2cc1O[C@@H]1O[C@H](COC(=O)CC(=O)O)[C@@H](O)[C@H](O)[C@H]1O [malonylglycitin, 6″-O-malonylglycitin]
Decomposition efficiency of glycitin family in concentrated soybean protein (pH1.6, heat treatment of enzyme: no, reaction time 0 h): 0.4% | Decomposition efficiency of glycitin family in concentrated soybean protein (pH1.6, heat treatment of enzyme: no, reaction time 1 h): 0.4% | Decomposition efficiency of glycitin family in concentrated soybean protein (pH1.6, heat treatment of enzyme: no, reaction time 3 h): 0.4% | Decomposition efficiency of glycitin family in concentrated soybean protein (pH1.6, heat treatment of enzyme: no, reaction time 6 h): 0.4% | Decomposition efficiency of glycitin family in concentrated soybean protein (pH1.6, heat treatment of enzyme: yes, reaction time 6 h): 0.4% | Decomposition efficiency of glycitin family in roasted soy flour (pH2, heat treatment of enzyme no, reaction time 0 h): not detected | Decomposition efficiency of glycitin family in roasted soy flour (pH2, heat treatment of enzyme no, reaction time 1 h): not detected | Decomposition efficiency of glycitin family in roasted soy flour (pH2, heat treatment of enzyme no, reaction time 3 h): not detected | Decomposition efficiency of glycitin family in roasted soy flour (pH2, heat treatment of enzyme no, reaction time 6 h): not detected | Decomposition efficiency of glycitin family in roasted soy flour (pH2, heat treatment of enzyme yes, reaction time 6 h): not detected | Decomposition efficiency of glycitin family in soymilk (pH2.3, heat treatment of enzyme no, reaction time 0 h): 42.6 | Decomposition efficiency of glycitin family in soymilk (pH2.3, heat treatment of enzyme no, reaction time 1 h): 51.3 | Decomposition efficiency of glycitin family in soymilk (pH2.3, heat treatment of enzyme no, reaction time 3 h): 47.7 | Decomposition efficiency of glycitin family in soymilk (pH2.3, heat treatment of enzyme no, reaction time 6 h): 46.5 | Decomposition efficiency of glycitin family in soymilk (pH2.3, heat treatment of enzyme yes, reaction time 6 h): 41.3 | Decomposition efficiency of glycitin family in defatted soybean (pH2.6, heat treatment of enzyme: no, reaction time 0 h): 100.0% | Decomposition efficiency of glycitin family in defatted soybean (pH2.6, heat treatment of enzyme: no, reaction time 1 h): 100.0% | Decomposition efficiency of glycitin family in defatted soybean (pH2.6, heat treatment of enzyme: no, reaction time 3 h): 100.0% | Decomposition efficiency of glycitin family in defatted soybean (pH2.6, heat treatment of enzyme: no, reaction time 6 h): 100.0% | Decomposition efficiency of glycitin family in defatted soybean (pH2.6, heat treatment of enzyme: yes, reaction time 6 h): 100.0% | Decomposition efficiency of glycitin family in concentrated soybean protein (pH2.7, heat treatment of enzyme: no, reaction time 0 h): 0.4% | Decomposition efficiency of glycitin family in concentrated soybean protein (pH2.7, heat treatment of enzyme: no, reaction time 1 h): 0.5% | Decomposition efficiency of glycitin family in concentrated soybean protein (pH2.7, heat treatment of enzyme: no, reaction time 3 h): 0.5% | Decomposition efficiency of glycitin family in concentrated soybean protein (pH2.7, heat treatment of enzyme: no, reaction time 6 h): 0.5% | Decomposition efficiency of glycitin family in concentrated soybean protein (pH2.7, heat treatment of enzyme: yes, reaction time 6 h): 0.4% | Decomposition efficiency of glycitin family in roasted soy flour (pH3, heat treatment of enzyme no, reaction time 0 h): not detected | Decomposition efficiency of glycitin family in roasted soy flour (pH3, heat treatment of enzyme no, reaction time 1 h): not detected | Decomposition efficiency of glycitin family in roasted soy flour (pH3, heat treatment of enzyme no, reaction time 3 h): not detected | Decomposition efficiency of glycitin family in roasted soy flour (pH3, heat treatment of enzyme no, reaction time 6 h): not detected | Decomposition efficiency of glycitin family in roasted soy flour (pH3, heat treatment of enzyme yes, reaction time 6 h): not detected | Decomposition efficiency of glycitin family in defatted soybean (pH3.4, heat treatment of enzyme: no, reaction time 0 h): 100.0% | Decomposition efficiency of glycitin family in defatted soybean (pH3.4, heat treatment of enzyme: no, reaction time 1 h): 100.0% | Decomposition efficiency of glycitin family in defatted soybean (pH3.4, heat treatment of enzyme: no, reaction time 3 h): 100.0% | Decomposition efficiency of glycitin family in defatted soybean (pH3.4, heat treatment of enzyme: no, reaction time 6 h): 100.0% | Decomposition efficiency of glycitin family in defatted soybean (pH3.4, heat treatment of enzyme: yes, reaction time 6 h): 100.0% | Decomposition efficiency of glycitin family in soymilk (pH3.5, heat treatment of enzyme no, reaction time 0 h): 42.6 | Decomposition efficiency of glycitin family in soymilk (pH3.5, heat treatment of enzyme no, reaction time 1 h): 21.9 | Decomposition efficiency of glycitin family in soymilk (pH3.5, heat treatment of enzyme no, reaction time 3 h): not detected | Decomposition efficiency of glycitin family in soymilk (pH3.5, heat treatment of enzyme no, reaction time 6 h): not detected | Decomposition efficiency of glycitin family in soymilk (pH3.5, heat treatment of enzyme yes, reaction time 6 h): 38.2 | Decomposition efficiency of glycitin family in concentrated soybean protein (pH3.7, heat treatment of enzyme: no, reaction time 0 h): 0.4% | Decomposition efficiency of glycitin family in concentrated soybean protein (pH3.7, heat treatment of enzyme: no, reaction time 1 h): 0.5% | Decomposition efficiency of glycitin family in concentrated soybean protein (pH3.7, heat treatment of enzyme: no, reaction time 3 h): 0.4% | Decomposition efficiency of glycitin family in concentrated soybean protein (pH3.7, heat treatment of enzyme: no, reaction time 6 h): 0.4% | Decomposition efficiency of glycitin family in concentrated soybean protein (pH3.7, heat treatment of enzyme: yes, reaction time 6 h): 0.4% | Decomposition efficiency of glycitin family in roasted soy flour (pH4, heat treatment of enzyme no, reaction time 0 h): not detected | Decomposition efficiency of glycitin family in roasted soy flour (pH4, heat treatment of enzyme no, reaction time 1 h): not detected | Decomposition efficiency of glycitin family in roasted soy flour (pH4, heat treatment of enzyme no, reaction time 3 h): not detected | Decomposition efficiency of glycitin family in roasted soy flour (pH4, heat treatment of enzyme no, reaction time 6 h): not detected | Decomposition efficiency of glycitin family in roasted soy flour (pH4, heat treatment of enzyme yes, reaction time 6 h): not detected | Decomposition efficiency of glycitin family in soymilk (pH4.8, heat treatment of enzyme no, reaction time 0 h): 43.2 | Decomposition efficiency of glycitin family in soymilk (pH4.8, heat treatment of enzyme no, reaction time 1 h): 37.0 | Decomposition efficiency of glycitin family in soymilk (pH4.8, heat treatment of enzyme no, reaction time 3 h): 21.1 | Decomposition efficiency of glycitin family in soymilk (pH4.8, heat treatment of enzyme no, reaction time 6 h): 8.3 | Decomposition efficiency of glycitin family in soymilk (pH4.8, heat treatment of enzyme yes, reaction time 6 h): 39.2 | Decomposition efficiency of glycitin family in defatted soybean (pH4.8, heat treatment of enzyme: no, reaction time 0 h): 64.0% | Decomposition efficiency of glycitin family in defatted soybean (pH4.8, heat treatment of enzyme: no, reaction time 1 h): 40.1% | Decomposition efficiency of glycitin family in defatted soybean (pH4.8, heat treatment of enzyme: no, reaction time 3 h): 37.5% | Decomposition efficiency of glycitin family in defatted soybean (pH4.8, heat treatment of enzyme: no, reaction time 6 h): 31.9% | Decomposition efficiency of glycitin family in defatted soybean (pH4.8, heat treatment of enzyme: yes, reaction time 6 h): 56.2% | Decomposition efficiency of glycitin family in roasted soy flour (pH5, heat treatment of enzyme no, reaction time 0 h): not detected | Decomposition efficiency of glycitin family in roasted soy flour (pH5, heat treatment of enzyme no, reaction time 1 h): not detected | Decomposition efficiency of glycitin family in roasted soy flour (pH5, heat treatment of enzyme no, reaction time 3 h): not detected | Decomposition efficiency of glycitin family in roasted soy flour (pH5, heat treatment of enzyme no, reaction time 6 h): not detected | Decomposition efficiency of glycitin family in roasted soy flour (pH5, heat treatment of enzyme yes, reaction time 6 h): not detected | Decomposition efficiency of glycitin family in concentrated soybean protein (pH5.1, heat treatment of enzyme: no, reaction time 0 h): 0.4% | Decomposition efficiency of glycitin family in concentrated soybean protein (pH5.1, heat treatment of enzyme: no, reaction time 1 h): 0.6% | Decomposition efficiency of glycitin family in concentrated soybean protein (pH5.1, heat treatment of enzyme: no, reaction time 3 h): 0.6% | Decomposition efficiency of glycitin family in concentrated soybean protein (pH5.1, heat treatment of enzyme: no, reaction time 6 h): 0.6% | Decomposition efficiency of glycitin family in concentrated soybean protein (pH5.1, heat treatment of enzyme: yes, reaction time 6 h): 0.4% | Decomposition efficiency of glycitin family in defatted soybean (pH5.4, heat treatment of enzyme: no, reaction time 0 h): 64.0% | Decomposition efficiency of glycitin family in defatted soybean (pH5.4, heat treatment of enzyme: no, reaction time 1 h): 45.1% | Decomposition efficiency of glycitin family in defatted soybean (pH5.4, heat treatment of enzyme: no, reaction time 3 h): 100.0% | Decomposition efficiency of glycitin family in defatted soybean (pH5.4, heat treatment of enzyme: no, reaction time 6 h): 32.3% | Decomposition efficiency of glycitin family in defatted soybean (pH5.4, heat treatment of enzyme: yes, reaction time 6 h): 39.3% | Decomposition efficiency of glycitin family in soymilk (pH6.2, heat treatment of enzyme no, reaction time 0 h): 43.2 | Decomposition efficiency of glycitin family in soymilk (pH6.2, heat treatment of enzyme no, reaction time 1 h): 46.4 | Decomposition efficiency of glycitin family in soymilk (pH6.2, heat treatment of enzyme no, reaction time 3 h): 34.5 | Decomposition efficiency of glycitin family in soymilk (pH6.2, heat treatment of enzyme no, reaction time 6 h): 29.6 | Decomposition efficiency of glycitin family in soymilk (pH6.2, heat treatment of enzyme yes, reaction time 6 h): 37.6 | Decomposition efficiency of glycitin family in roasted soy flour (pH6.5, heat treatment of enzyme no, reaction time 0 h): not detected | Decomposition efficiency of glycitin family in roasted soy flour (pH6.5, heat treatment of enzyme no, reaction time 1 h): not detected | Decomposition efficiency of glycitin family in roasted soy flour (pH6.5, heat treatment of enzyme no, reaction time 3 h): not detected | Decomposition efficiency of glycitin family in roasted soy flour (pH6.5, heat treatment of enzyme no, reaction time 6 h): not detected | Decomposition efficiency of glycitin family in roasted soy flour (pH6.5, heat treatment of enzyme yes, reaction time 6 h): not detected | Decomposition efficiency of glycitin family in concentrated soybean protein [1]: 0.4% | Decomposition efficiency of glycitin family in defatted soybean [1]: 39.6% | Decomposition efficiency of glycitin family in concentrated soybean protein [2]: 0.4% | Decomposition efficiency of glycitin family in defatted soybean [2]: 52.9% | Decomposition efficiency of glycitin family in concentrated soybean protein [3]: 0.4% | Decomposition efficiency of glycitin family in defatted soybean [3]: 53.6% | Decomposition efficiency of glycitin family in concentrated soybean protein [4]: 0.4% | Decomposition efficiency of glycitin family in defatted soybean [4]: 58.1% | Decomposition efficiency of glycitin family in concentrated soybean protein [5]: 0.4% | Decomposition efficiency of glycitin family in defatted soybean [5]: 50.3% | Decomposition efficiency of glycitin family in soymilk (pH7.2, heat treatment of enzyme no, reaction time 0 h): 43.9 | Decomposition efficiency of glycitin family in soymilk (pH7.2, heat treatment of enzyme no, reaction time 1 h): 48.8 | Decomposition efficiency of glycitin family in soymilk (pH7.2, heat treatment of enzyme no, reaction time 3 h): 46.2 | Decomposition efficiency of glycitin family in soymilk (pH7.2, heat treatment of enzyme no, reaction time 6 h): 41.6 | Decomposition efficiency of glycitin family in soymilk (pH7.2, heat treatment of enzyme yes, reaction time 6 h): 37.5 | Decomposition efficiency of glycitin family in defatted soybean (pH7.8, heat treatment of enzyme: no, reaction time 0 h): 66.8% | Decomposition efficiency of glycitin family in defatted soybean (pH7.8, heat treatment of enzyme: no, reaction time 1 h): 57.5% | Decomposition efficiency of glycitin family in defatted soybean (pH7.8, heat treatment of enzyme: no, reaction time 3 h): 53.2% | Decomposition efficiency of glycitin family in defatted soybean (pH7.8, heat treatment of enzyme: no, reaction time 6 h): 49.1% | Decomposition efficiency of glycitin family in defatted soybean (pH7.8, heat treatment of enzyme: yes, reaction time 6 h): 55.8% | Decomposition efficiency of glycitin family in roasted soy flour (pH8.5, heat treatment of enzyme no, reaction time 0 h): not detected | Decomposition efficiency of glycitin family in roasted soy flour (pH8.5, heat treatment of enzyme no, reaction time 1 h): not detected | Decomposition efficiency of glycitin family in roasted soy flour (pH8.5, heat treatment of enzyme no, reaction time 3 h): not detected | Decomposition efficiency of glycitin family in roasted soy flour (pH8.5, heat treatment of enzyme no, reaction time 6 h): not detected | Decomposition efficiency of glycitin family in roasted soy flour (pH8.5, heat treatment of enzyme yes, reaction time 6 h): not detected | Decomposition efficiency of glycitin family in concentrated soybean protein (pH8.6, heat treatment of enzyme: no, reaction time 0 h): 0.4% | Decomposition efficiency of glycitin family in concentrated soybean protein (pH8.6, heat treatment of enzyme: no, reaction time 1 h): 0.4% | Decomposition efficiency of glycitin family in concentrated soybean protein (pH8.6, heat treatment of enzyme: no, reaction time 3 h): 0.4% | Decomposition efficiency of glycitin family in concentrated soybean protein (pH8.6, heat treatment of enzyme: no, reaction time 6 h): 0.4% | Decomposition efficiency of glycitin family in concentrated soybean protein (pH8.6, heat treatment of enzyme: yes, reaction time 6 h): 0.3% | Decomposition efficiency of glycitin family in soymilk (pH11.6, heat treatment of enzyme no, reaction time 0 h): 39.4 | Decomposition efficiency of glycitin family in soymilk (pH11.6, heat treatment of enzyme no, reaction time 1 h): 50.4 | Decomposition efficiency of glycitin family in soymilk (pH11.6, heat treatment of enzyme no, reaction time 3 h): 46.5 | Decomposition efficiency of glycitin family in soymilk (pH11.6, heat treatment of enzyme no, reaction time 6 h): 44.0 | Decomposition efficiency of glycitin family in soymilk (pH11.6, heat treatment of enzyme yes, reaction time 6 h): 34.4
